± gives the expanded uncertainty stated by the source.
What was measured:
[1] = refractive index (Na D-line) (dimensionless); conditions: 298.15 K; 101.33 kPa; Liquid; Standard Abbe refractometry
[2] = 298.15 K; 101.33 kPa; Liquid
[3] = excess molar enthalpy (molar enthalpy of mixing); xn = mol fraction of the nth substance listed; conditions: 298.15 K, 101 kPa, Liquid
[4] = refractive index (Na D-line) (dimensionless); xn = mol fraction of the nth substance listed; conditions: 298.15 K, 101.3 kPa, Liquid, Standard Abbe refractometry
[5] = xn = mol fraction of the nth substance listed; conditions: 298.15 K, Liquid

Compound: Cc1ccccc1 [toluene]
- refractive index [1]: 1.4941 ± 0.0004
- mass density [2]: 862.11 ± 0.18 kg/m3

Compound: CCCOC(=O)CC [propyl propanoate] + Cc1ccccc1
- excess molar enthalpy ([3]; x1 = 0.0547): -0.0427 ± 0.0044 kJ/mol
- excess molar enthalpy ([3]; x1 = 0.1357): -0.0932 ± 0.006 kJ/mol
- excess molar enthalpy ([3]; x1 = 0.1718): -0.11 ± 0.0065 kJ/mol
- excess molar enthalpy ([3]; x1 = 0.2389): -0.14 ± 0.0074 kJ/mol
- excess molar enthalpy ([3]; x1 = 0.2823): -0.153 ± 0.0078 kJ/mol
- excess molar enthalpy ([3]; x1 = 0.3263): -0.167 ± 0.0083 kJ/mol
- excess molar enthalpy ([3]; x1 = 0.3957): -0.176 ± 0.0086 kJ/mol
- excess molar enthalpy ([3]; x1 = 0.4277): -0.176 ± 0.0086 kJ/mol
- excess molar enthalpy ([3]; x1 = 0.5486): -0.158 ± 0.008 kJ/mol
- excess molar enthalpy ([3]; x1 = 0.5841): -0.151 ± 0.0078 kJ/mol
- excess molar enthalpy ([3]; x1 = 0.6522): -0.137 ± 0.0074 kJ/mol
- excess molar enthalpy ([3]; x1 = 0.709): -0.123 ± 0.0069 kJ/mol
- excess molar enthalpy ([3]; x1 = 0.7394): -0.114 ± 0.0066 kJ/mol
- excess molar enthalpy ([3]; x1 = 0.8031): -0.0954 ± 0.0061 kJ/mol
- excess molar enthalpy ([3]; x1 = 0.8568): -0.0766 ± 0.0055 kJ/mol
- excess molar enthalpy ([3]; x1 = 0.892): -0.0547 ± 0.0048 kJ/mol
- excess molar enthalpy ([3]; x1 = 0.9577): -0.0244 ± 0.0039 kJ/mol
- refractive index ([4]; x1 = 0.0625): 1.4858 ± 0.0007
- refractive index ([4]; x1 = 0.1072): 1.4803 ± 0.0007
- refractive index ([4]; x1 = 0.1826): 1.4712 ± 0.0007
- refractive index ([4]; x1 = 0.2232): 1.4665 ± 0.0007
- refractive index ([4]; x1 = 0.2747): 1.4605 ± 0.0007
- refractive index ([4]; x1 = 0.3426): 1.4529 ± 0.0007
- refractive index ([4]; x1 = 0.4514): 1.4411 ± 0.0007
- refractive index ([4]; x1 = 0.4907): 1.437 ± 0.0007
- refractive index ([4]; x1 = 0.5441): 1.4316 ± 0.0007
- refractive index ([4]; x1 = 0.5833): 1.4277 ± 0.0007
- refractive index ([4]; x1 = 0.6451): 1.4218 ± 0.0007
- refractive index ([4]; x1 = 0.7066): 1.416 ± 0.0007
- refractive index ([4]; x1 = 0.7346): 1.4135 ± 0.0007
- refractive index ([4]; x1 = 0.7898): 1.4085 ± 0.0007
- refractive index ([4]; x1 = 0.8508): 1.4031 ± 0.0007
- refractive index ([4]; x1 = 0.9037): 1.3986 ± 0.0007
- refractive index ([4]; x1 = 0.956): 1.3942 ± 0.0007
- mass density ([5]; 101.3 kPa, x1 = 0.0625): 863.5 ± 0.35 kg/m3
- mass density ([5]; 101.3 kPa, x1 = 0.1072): 864.46 ± 0.35 kg/m3
- mass density ([5]; 101.3 kPa, x1 = 0.1826): 865.94 ± 0.35 kg/m3
- mass density ([5]; 101.3 kPa, x1 = 0.2232): 866.69 ± 0.36 kg/m3
- mass density ([5]; 101.3 kPa, x1 = 0.2747): 867.57 ± 0.36 kg/m3
- mass density ([5]; 101.3 kPa, x1 = 0.3426): 868.66 ± 0.37 kg/m3
- mass density ([5]; 101.3 kPa, x1 = 0.4514): 870.21 ± 0.38 kg/m3
- mass density ([5]; 101.3 kPa, x1 = 0.4907): 870.73 ± 0.38 kg/m3
- mass density ([5]; 101.3 kPa, x1 = 0.5441): 871.41 ± 0.39 kg/m3
- mass density ([5]; 101.3 kPa, x1 = 0.5833): 871.86 ± 0.39 kg/m3
- mass density ([5]; 101.3 kPa, x1 = 0.6451): 872.53 ± 0.4 kg/m3
- mass density ([5]; 101.3 kPa, x1 = 0.7066): 873.14 ± 0.41 kg/m3
- mass density ([5]; 101.3 kPa, x1 = 0.7346): 873.41 ± 0.42 kg/m3
- mass density ([5]; 101.3 kPa, x1 = 0.7898): 873.9 ± 0.43 kg/m3
- mass density ([5]; 101.3 kPa, x1 = 0.8508): 874.42 ± 0.44 kg/m3
- mass density ([5]; 101.3 kPa, x1 = 0.9037): 874.81 ± 0.45 kg/m3
- mass density ([5]; 101.3 kPa, x1 = 0.956): 875.2 ± 0.46 kg/m3

Compound: CCCOC(=O)CC [propyl propanoate]
- refractive index [1]: 1.3906 ± 0.0004
- mass density [2]: 875.48 ± 0.64 kg/m3

Compound: CCCCCC [hexane]
- refractive index [1]: 1.3723 ± 0.0004
- mass density [2]: 654.68 ± 0.7 kg/m3

Compound: CCCCCC [hexane] + Cc1ccccc1
- excess molar enthalpy ([3]; x1 = 0.0525): 0.123 ± 0.004 kJ/mol
- excess molar enthalpy ([3]; x1 = 0.0957): 0.212 ± 0.0061 kJ/mol
- excess molar enthalpy ([3]; x1 = 0.1586): 0.316 ± 0.0086 kJ/mol
- excess molar enthalpy ([3]; x1 = 0.2119): 0.391 ± 0.011 kJ/mol
- excess molar enthalpy ([3]; x1 = 0.2672): 0.457 ± 0.012 kJ/mol
- excess molar enthalpy ([3]; x1 = 0.3135): 0.494 ± 0.013 kJ/mol
- excess molar enthalpy ([3]; x1 = 0.3766): 0.528 ± 0.014 kJ/mol
- excess molar enthalpy ([3]; x1 = 0.4264): 0.543 ± 0.014 kJ/mol
- excess molar enthalpy ([3]; x1 = 0.4723): 0.547 ± 0.014 kJ/mol
- excess molar enthalpy ([3]; x1 = 0.5414): 0.534 ± 0.014 kJ/mol
- excess molar enthalpy ([3]; x1 = 0.6641): 0.48 ± 0.013 kJ/mol
- excess molar enthalpy ([3]; x1 = 0.6927): 0.456 ± 0.012 kJ/mol
- excess molar enthalpy ([3]; x1 = 0.7484): 0.393 ± 0.011 kJ/mol
- excess molar enthalpy ([3]; x1 = 0.8045): 0.326 ± 0.0089 kJ/mol
- excess molar enthalpy ([3]; x1 = 0.8657): 0.241 ± 0.0068 kJ/mol
- excess molar enthalpy ([3]; x1 = 0.9023): 0.183 ± 0.0054 kJ/mol
- refractive index ([4]; x1 = 0.0543): 1.486 ± 0.0007
- refractive index ([4]; x1 = 0.0958): 1.4801 ± 0.0007
- refractive index ([4]; x1 = 0.1667): 1.4701 ± 0.0007
- refractive index ([4]; x1 = 0.2129): 1.4637 ± 0.0007
- refractive index ([4]; x1 = 0.2818): 1.4541 ± 0.0007
- refractive index ([4]; x1 = 0.3261): 1.4482 ± 0.0007
- refractive index ([4]; x1 = 0.3762): 1.4417 ± 0.0007
- refractive index ([4]; x1 = 0.4262): 1.4353 ± 0.0007
- refractive index ([4]; x1 = 0.4769): 1.429 ± 0.0007
- refractive index ([4]; x1 = 0.5136): 1.4246 ± 0.0007
- refractive index ([4]; x1 = 0.5742): 1.4174 ± 0.0007
- refractive index ([4]; x1 = 0.6327): 1.4107 ± 0.0007
- refractive index ([4]; x1 = 0.6862): 1.4047 ± 0.0007
- refractive index ([4]; x1 = 0.7402): 1.3987 ± 0.0007
- refractive index ([4]; x1 = 0.7958): 1.3927 ± 0.0007
- refractive index ([4]; x1 = 0.8548): 1.3866 ± 0.0007
- refractive index ([4]; x1 = 0.9106): 1.381 ± 0.0007
- refractive index ([4]; x1 = 0.9409): 1.378 ± 0.0007
- mass density ([5]; 101 kPa, x1 = 0.0524): 848.99 ± 0.37 kg/m3
- mass density ([5]; 101 kPa, x1 = 0.0926): 839.12 ± 0.39 kg/m3
- mass density ([5]; 101 kPa, x1 = 0.1636): 822.1 ± 0.41 kg/m3
- mass density ([5]; 101 kPa, x1 = 0.2011): 813.3 ± 0.43 kg/m3
- mass density ([5]; 101 kPa, x1 = 0.2475): 802.64 ± 0.45 kg/m3
- mass density ([5]; 101 kPa, x1 = 0.3184): 786.7 ± 0.48 kg/m3
- mass density ([5]; 101 kPa, x1 = 0.4088): 767.06 ± 0.51 kg/m3
- mass density ([5]; 101 kPa, x1 = 0.4739): 753.36 ± 0.53 kg/m3
- mass density ([5]; 101 kPa, x1 = 0.5096): 746 ± 0.55 kg/m3
- mass density ([5]; 101 kPa, x1 = 0.5734): 733.08 ± 0.56 kg/m3
- mass density ([5]; 101 kPa, x1 = 0.6086): 726.13 ± 0.57 kg/m3
- mass density ([5]; 101 kPa, x1 = 0.6754): 713.16 ± 0.59 kg/m3
- mass density ([5]; 101 kPa, x1 = 0.7338): 702.09 ± 0.61 kg/m3
- mass density ([5]; 101 kPa, x1 = 0.7827): 693.01 ± 0.62 kg/m3
- mass density ([5]; 101 kPa, x1 = 0.8426): 682.13 ± 0.64 kg/m3
- mass density ([5]; 101 kPa, x1 = 0.9055): 670.97 ± 0.66 kg/m3
- mass density ([5]; 101 kPa, x1 = 0.9323): 666.29 ± 0.67 kg/m3
